From publication PMC10300102, “In vivo inhibition of nuclear ACE2 translocation protects against SARS-CoV-2 replication and lung damage through epigenetic imprinting” (Nature Communications, 2023)
Where a SMILES comes first, the peptide text is derived from it. The star is where a group is joined. Myristoyl = CCCCCCCCCCCCCC(=O)*

Tests used:
SARS-CoV-2 spike protein = system: SARS-CoV-2 spike protein; parameters: species or system golden Syrian hamsters; conditions: hamster, in vivo
[1] = target: T1, ACE2-IMPα interactions in H1299 cells (Homo sapiens, UniProt P52294); assay: Duolink proximity ligation assay; format: cell-based; conditions: 0.0015, 0.0977 and 6.25 µM
T1 construct: endogenous in cells; host or cells: NCI-H1299
Protocol: The Duolink proximity ligation assay was used with PLA probe anti-mouse PLUS (DUO92001), PLA probe anti-rabbit MINUS (DUO92005), and the Duolink In Situ Detection Reagent Red kit (DUO92008) (Sigma-Aldrich). Cells were fixed, permeabilized, and incubated with primary ACE2 antibodies targeting the NLS region and IMPα1 (staining conditions are shown in Supplementary Table 4). Cells were processed according to the manufacturer’s instructions. Finally, coverslips were mounted onto slides and examined as above. Image segmentation and analysis were carried out using QuPath open software (version 0.4.3) for bioimage analysis[64] with a custom script. An analysis workflow was developed with the following steps: (i) threshold-based cell detection using DAPI staining to create a mask for detected nuclei along with a 5 µm cell expansion setting to denote the cell cytoplasm boundary; and (ii) use of the QuPath subcellular detection module to detect the Duolink-positive spots in the Alexa Fluor 555 channel in each cell. The two functions were wrapped in a script to allow for batch analysis of images and data export. Total dots were counted per cell and then averaged for each cell and experimental group; approximately 100 cells were counted per group.

[2] = system: SARS-CoV-2 (QLD02) in Caco2 cells; conditions: cited from earlier work
[3] = system: ACE2, ACE2me, SARS-CoV-2 spike protein; parameters: species or system golden Syrian hamsters; conditions: hamster, in vivo

T1 sequence (P52294 whole entry): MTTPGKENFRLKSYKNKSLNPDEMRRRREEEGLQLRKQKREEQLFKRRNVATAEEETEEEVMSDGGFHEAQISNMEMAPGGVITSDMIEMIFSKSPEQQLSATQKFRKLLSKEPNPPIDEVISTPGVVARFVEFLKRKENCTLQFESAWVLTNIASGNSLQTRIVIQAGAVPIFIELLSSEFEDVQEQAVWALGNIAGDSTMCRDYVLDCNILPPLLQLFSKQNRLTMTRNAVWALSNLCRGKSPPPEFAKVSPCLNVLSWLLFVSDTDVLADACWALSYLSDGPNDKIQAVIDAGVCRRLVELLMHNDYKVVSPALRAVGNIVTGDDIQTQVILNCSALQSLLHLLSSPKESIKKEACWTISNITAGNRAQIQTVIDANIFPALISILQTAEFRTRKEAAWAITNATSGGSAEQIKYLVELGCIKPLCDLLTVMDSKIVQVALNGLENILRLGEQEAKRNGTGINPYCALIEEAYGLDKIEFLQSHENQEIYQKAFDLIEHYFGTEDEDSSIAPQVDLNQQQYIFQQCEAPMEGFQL

SMILES: CCCCCCCCCCCCCC(=O)N[C@H](C(=O)NCC(=O)N[C@H](C(=O)N[C@@H](CCCNC(=N)N)C(=O)N[C@@H](CC(=O)O)C(=O)N[C@@H](CCCNC(=N)N)C(=O)N[C@@H](CCCCN)C(=O)N[C@@H](CCCCN)C(=O)N[C@@H](CCCCN)C(=O)N[C@@H](CC(N)=O)C(=O)N[C@@H](CCCCN)C(=O)N[C@@H](C)C(=O)N[C@@H](CCCNC(=N)N)C(=O)N[C@@H](CO)C(=O)O)[C@@H](C)CC)[C@@H](C)O [NACE2i] (Myristoyl-TGIRDRKKKNKARS-OH)
- SARS-CoV-2 spike protein signal intensity (SARS-CoV-2 spike protein): significantly reduced
- population of SARS-CoV-2 spike protein-positive cells in bronchiolar epithelium (SARS-CoV-2 spike protein): significantly reduced
- ACE2-IMPα interactions (Duolink) [1]: significantly inhibited ACE2-IMPα interactions in a dose-dependent manner
- SARS-CoV-2 replication in Caco2 cells [2]: significantly inhibit
- ACE2me in the bronchioles [3]: significantly upregulated
- Fn/c of ACE2 [3]: significantly reduced
- SARS-CoV-2 spike protein expression in bronchioles [3]: significantly reduced or eliminated
- global ACE2 and proportion of ACE2+ cells [3]: no significant change
- nuclear ACE2 expression in bronchiolar epithelial cells [3]: significantly reduced
- proportion of cells co-expressing ACE2 and ACE2me [3]: increased
